Measurements published in article PMC12794078, “Real-Time Binding Kinetics of Small Molecules to CA IX in Live Suspension Cells Using SPR Microscopy” (ACS Medicinal Chemistry Letters, 2025).
Where two headings read alike, the source gives them in different places. Values belong to the molecule of their own block, whether it stands above or below them.

What was measured:
[1] = target: CA IX on live Ramos B cells (Homo sapiens, UniProt Q16790); assay: SPRM kinetic titration of small molecules on live Ramos B suspension cells (1:1 kinetic model, 600 ROIs)
Experimental: All cells were maintained in an incubator at 37 °C with 5% CO2 before seeding. For every experiment, cell viability was determined with Trypan blue using a TC20 cell counter (BioRad). PLL precoated SPRM sensor chips were prepared according to manufacturer’s protocol (Gibco, cat. # A3890401). 5K Ramos B cells at 99% viability were gently seeded onto PLL precoated SPRM sensor chips containing 600 μL of Mccoy medium 5A supplemented with 10% FBS and then incubated at 37 °C with 5% CO2. After 72 h of incubation, cells were washed with live cell imaging buffer (A59688DJ) twice and immediately followed by SPRM analysis. […] All experiments were performed with a commercially available Ramos B cell line.
SPRM is highly sensitive to ligand binding events on the cell membrane, which induces dielectric changes that are recorded as sensorgrams. Moreover, its high-resolution diffraction limited optics produces sensorgrams of subcellular response regions, enabling detailed evaluation of binding heterogeneity.
High resolution SPRM measurements were generated by uniformly segmenting the sensing area (600 μm × 450 μm area) into a virtual grid of 600 regions of interest (ROI). For every ROI, a 1:1 kinetic binding interaction model was applied. Bare area ROIs were subtracted as references from the cell area ROIs. The SPRM kinetic analysis results of all ROIs were aggregated for statistical analysis. ImageSPR software (Biosensing Instrument Inc., Tempe AZ) was used to generate the sensorgrams, fitting, and statistical analysis of binding interactions. ROIs that detected a response which fitted well to the kinetic interaction model were collectively plotted onto an isoaffinity scatter plot for statistical analysis of the binding heterogeneity (Figure ). Histograms extracted from the isoaffinity scatter plot were fit with Gaussian distributions to obtain mean values and standard deviations for the association rate (k a), dissociation rate (k d), and equilibrium dissociation constant (KD). Subsequently, those ROIs that observe binding responses were highlighted in red and overlaid onto the SPRM image to more clearly evaluate the extent of cell-specific and nonspecific binding.

[2] = target: CA II; settings: ex vitro purified CA II, published values; reference number not given; read-out: Reported values CA II; cited from earlier work
[3] = association rate, membrane-bound CA IX, live Ramos B cells
[4] = dissociation rate, membrane-bound CA IX, live Ramos B cells

Kd ([1]; Batch 1): 870 nM
Kd ([1]; Batch 2): 1000 nM
Kd ([1]; Batch 3): 780 nM
Kd ([1]; SPRM results for CA IX): 870 nM
SMILES: NS(=O)(=O)c1ccc(C(=O)O)cc1 [4-CBS, 4-Carboxybenzenesulfonamide]

k a, SPRM results for CA IX [1, 3]: 1.10 × 10^03 M^–1 s^–1
kd, SPRM results for CA IX [1, 4]: 1.16 × 10^–03 s^–1
SMILES: NS(=O)(=O)c1cc(C(=O)O)c(NCc2ccco2)cc1Cl [Furosemide]

SMILES: Nc1ccc(S(N)(=O)=O)cc1 [Sulfanilamide]
k a, SPRM results for CA IX [1]: 4.40 × 10^03 M^–1 s^–1
kd, SPRM results for CA IX [1]: 1.39 × 10^–03 s^–1

Kd ([1]; Batch 1, live Ramos B cells, experiment/batch 1): 586 nM
Kd ([1]; Batch 2, live Ramos B cells, experiment/batch 2): 542 nM
Kd ([1]; Batch 3, live Ramos B cells, experiment/batch 3): 534 nM
Kd ([1]; SPRM results for CA IX, membrane-bound CA IX, live Ramos B cells, Gaussian mean over ROIs): 586 nM
k a, SPRM results for CA IX [1, 3]: 2.53 × 10^03 M^–1 s^–1
kd, SPRM results for CA IX [1, 4]: 2.34 × 10^–03 s^–1
SMILES: CN(C)c1cccc2c(S(N)(=O)=O)cccc12 [Dansylamide]
Kd [2]: 760 nM
